Source: patent publication US20050245563A1 (Millennium Pharmaceuticals, Inc., priority 2003, published 2005)

target: T1, human Chk1 (GST-Chk1) (Homo sapiens, UniProt O14757); assay: Chk1 FlashPlate kinase assay; assay type: biochemical; settings: 8.7 nM GST-Chk1, 1 uM ATP, 33P incorporation into peptide substrate
T1 construct: made in house; host or cells: insect cells (baculovirus, Bac-to-Bac)
T1 sequence (O14757 1-476): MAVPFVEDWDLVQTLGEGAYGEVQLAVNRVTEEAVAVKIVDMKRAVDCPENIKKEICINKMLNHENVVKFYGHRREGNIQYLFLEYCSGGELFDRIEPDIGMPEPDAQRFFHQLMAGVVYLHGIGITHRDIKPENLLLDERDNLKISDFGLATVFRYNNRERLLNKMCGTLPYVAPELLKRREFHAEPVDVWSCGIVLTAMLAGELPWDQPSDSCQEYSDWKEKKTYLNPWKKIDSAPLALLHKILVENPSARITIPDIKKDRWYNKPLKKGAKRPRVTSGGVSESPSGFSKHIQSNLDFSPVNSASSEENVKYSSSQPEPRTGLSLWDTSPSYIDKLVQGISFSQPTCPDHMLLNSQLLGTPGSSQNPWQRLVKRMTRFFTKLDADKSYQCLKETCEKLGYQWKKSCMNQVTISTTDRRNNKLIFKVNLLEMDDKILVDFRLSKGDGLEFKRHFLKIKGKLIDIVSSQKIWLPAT
Protocol: Recombinant human Chk1 was expressed as a fusion protein with glutathione S-transferase at the amino-terminus (GST-Chk1) using standard baculovirus vectors and (Bac-to-Bac®) insect cell expression system purchased from GIBCO™ Invitrogen. Recombinant protein expressed in insect cells was purified using glutathione sepharose (Amersham Biotech) using standard procedures described by the manufacturer.
Chk1 FlashPlate® Kinase Assay:
Assays (25 μL) contained 8.7 nM GST-Chk1, 10 mM MES, 0.1 mM ethylene glycol-bis(β-aminoethylether)-N,N,N′,N′-tetracetic acid (EGTA, pH 8.0), 2 mM DTT, 0.05% Tween 20, 3 uM peptide substrate (Biotin-ILSRRPSYRKILND-free acid) (SEQ ID NO: 1), 1 uM ATP, 0.4 uCi ^33P-γ-ATP (NEN), 4% DMSO. Reactions were incubated for 30 minutes at room temperature, terminated with 50 μL of 50 mM EDTA and 90 μL were transferred to streptavidin-coated FlashPlates® (NEN) and incubated for 1 hour at room temperature. Plates were washed with phosphate buffered salaine containing 0.01% Tween-20 and 10 mM sodium pyrophosphate. Plates were dried, sealed with Topseal™ (NEN) and amount of ^33P incorporated into the peptide substate measure using a Packard Topcount® NXT™ scintillation counter with standard settings.

Row | IC50 [nM] | Structure (SMILES)
1 | < 1000 | Cc1[nH]nc2c1c(=O)n(CCCNC(=O)CC(C)C)c1ccccc21 [Example 35, 3-Methyl-N-[3-(3-methyl-4-oxo-2,4-dihydro-pyrazolo[4,3-c]quinolin-5-yl)-propyl]-butyramide]
2 | < 1000 | Cc1n[nH]c2c1c(=O)n(CCCCNC(=O)c1ccccc1)c1ccc(Br)cc21 [Example 36, N-[4-(8-Bromo-3-methyl-4-oxo-1,4-dihydro-pyrazolo[4,3-c]quinolin-5-yl)-butyl]-benzamide]
3 | 1000 to 20000 | Cc1n[nH]c2c1c(=O)n(CC1CCN(C(=O)OC(C)(C)C)CC1)c1ccc(Br)cc21 [Example 37, 4-(8-Bromo-3-methyl-4-oxo-1,4-dihydro-pyrazolo[4,3-c]quinolin-5-ylmethyl)-piperidine-1-carboxylic acid tert-butyl ester]
4 | < 1000 | Cc1n[nH]c2c1c(=O)n(CC1CCNCC1)c1ccc(Br)cc21 [Example 39, 8-Bromo-3-methyl-5-piperidin-4-ylmethyl-1,5-dihydro-pyrazolo[4,3-c]quinolin-4-one]
5 | < 1000 | Cc1n[nH]c2c1c(=O)n(CCCNC(=O)c1ccc(Cl)cc1)c1ccc(Cl)cc21 [Example 40, 4-Chloro-N-[3-(8-chloro-3-methyl-4-oxo-1,4-dihydro-pyrazolo[4,3-c]quinolin-5-yl)-propyl]-benzamide]
6 | < 1000 | Cc1n[nH]c2c1c(=O)n(CC(C)CNC(=O)OC(C)(C)C)c1ccc(Br)cc21 (stereo not shown) [Example 41, [3-(8-Bromo-3-methyl-4-oxo-1,4-dihydro-pyrazolo[4,3-c]quinolin-5-yl)-2-methyl-propyl]-carbamic acid tert-butyl ester]
7 | < 1000 | Cc1n[nH]c2c1c(=O)n(CC(C)CN)c1ccc(Br)cc21 (stereo not shown) [Example 42, 5-(3-Amino-2-methyl-propyl)-8-bromo-3-methyl-1,5-dihydro-pyrazolo[4,3-c]quinolin-4-one]
8 | < 1000 | Cc1n[nH]c2c1c(=O)n(CCCNC(=O)OCc1ccccc1)c1ccc(Br)cc21 [Example 43, [3-(8-Bromo-3-methyl-4-oxo-1,4-dihydro-pyrazolo[4,3-c]quinolin-5-yl)-propyl]-carbamic acid benzyl ester]
9 | < 1000 | Cc1ccc2c(c1)c1n[nH]c(C)c1c(=O)n2CCCNC(=O)OC(C)(C)C [Example 44, [3-(3,8-Dimethyl-4-oxo-2,4-dihydro-pyrazolo[4,3-c]quinolin-5-yl)-propyl]-carbamic acid tert-butyl ester]
10 | < 1000 | Cc1ccc2c(c1)c1n[nH]c(C)c1c(=O)n2CCCN [Example 45, 5-(3-Amino-propyl)-3,8-dimethyl-2,5-dihydro-pyrazolo[4,3-c]quinolin-4-one]
11 | < 1000 | Cc1n[nH]c2c1c(=O)n(C[C@@H](C)CNC(=O)OC(C)(C)C)c1ccc(Br)cc21 [Example 46, [3-(8-Bromo-3-methyl-4-oxo-1,4-dihydro-pyrazolo[4,3-c]quinolin-5-yl)-2-S-methyl-propyl]-carbamic acid tert-butyl ester]
12 | < 1000 | Cc1n[nH]c2c1c(=O)n(C[C@@H](C)CN)c1ccc(Br)cc21 [Example 47, 5-(3-Amino-2-S-methyl-propyl)-8-bromo-3-methyl-1,5-dihydro-pyrazolo[4,3-c]quinolin-4-one]
13 | < 1000 | Cc1n[nH]c2c1c(=O)n(CC1CCCNC1)c1ccc(Br)cc21 (stereo not shown) [Example 48, 8-Bromo-3-methyl-5-piperidin-3-ylmethyl-1,5-dihydro-pyrazolo [4,3-c]quinolin-4-one]
14 | < 1000 | COCCc1[nH]nc2c1c(=O)n(CCCN)c1ccc(Cl)cc21 [Example 50, 5-(3-Amino-propyl)-8-chloro-3-(2-methoxy-ethyl)-2,5-dihydro-pyrazolo[4,3-c]quinolin-4-one]
15 | < 1000 | Cc1n[nH]c2c1c(=O)n(CCCNCCc1ccccc1)c1ccccc21 [Example 51, 3-Methyl-5-(3-phenethylamino-propyl)-1,5-dihydro-pyrazolo[4,3-c]quinolin4-one]
16 | < 1000 | Cc1n[nH]c2c1c(=O)n(CCNC(=O)OC(C)(C)C)c1ccc(Br)cc21 [Example 52, [2-(8-Bromo-3-methyl-4-oxo-1,4-dihydro-pyrazolo[4,3-c]quinolin-5-yl)-ethyl]-carbamic acid tert-butyl ester]
17 | < 1000 | Cc1n[nH]c2c1c(=O)n(CCN)c1ccc(Br)cc21 [Example 53, 5-(2-Amino-ethyl)-8-bromo-3-methyl-1,5-dihydro-pyrazolo[4,3-c]quinolin4-one]

Row | IC50 [nM] | Structure (SMILES)
18 | < 1000 | Cc1[nH]nc2c1c(=O)n(CCCN)c1ccc([N+](=O)[O-])cc21 [Example 55, 5-(3-Amino-propyl)-3-methyl-8-nitro-2,5-dihydro-pyrazolo[4,3-c]quinolin-4-one]
19 | < 1000 | Cc1n[nH]c2c1c(=O)n(CCCNC(=O)OC(C)(C)C)c1ccc(Br)cc21 [Example 56, [3-(8-Bromo-3-methyl-4-oxo-1,4-dihydro-pyrazolo[4,3-c]quinolin-5-yl)-propyl]-carbamic acid tert-butyl ester]
20 | < 1000 | Cc1[nH]nc2c1c(=O)n(CCCN)c1ccc(Br)cc21 [Example 57, 5-(3-Amino-propyl)-8-bromo-3-methyl-1,5-dihydro-pyrazolo[4,3-c]quinolin-4-one]
21 | < 1000 | COc1ccc2c(c1)c1n[nH]c(C)c1c(=O)n2CCCN [Example 58]
22 | < 1000 | Cc1[nH]nc2c1c(=O)n(CCCN)c1ccc(O)cc21 [Example 59, 5-(3-Amino-propyl)-8-hydroxy-3-methyl-2,5-dihydro-pyrazolo[4,3-c]quinolin-4-one]
23 | < 1000 | Cc1[nH]nc2c1c(=O)n(CCCNC(=O)c1ccc(Cl)cc1)c1ccccc21 [Example 60, 4-Chloro-N-[3-(3-methyl-4-oxo-2,4-dihydro-pyrazolo[4,3-c]quinolin-5-yl)-propyl]-benzamide]
24 | < 1000 | Cc1[nH]nc2c1c(=O)n(CCCNC(=O)c1ccc([N+](=O)[O-])cc1)c1ccccc21 [Example 61, N-[3-(3-Methyl-4-oxo-2,4-dihydro-pyrazolo[4,3-c]quinolin-5-yl)-propyl]-4-nitro-benzamide]
25 | < 1000 | Cc1[nH]nc2c1c(=O)n(CCCNC(=O)CCc1ccccc1)c1ccccc21 [Example 62, N-[3-(3-Methyl-4-oxo-2,4-dihydro-pyrazolo[4,3-c]quinolin-5-yl)-propyl]-3-phenyl-propionamide]
26 | < 1000 | Cc1[nH]nc2c1c(=O)n(CCCNC(=O)c1ccc(F)cc1F)c1ccccc21 [Example 63, 2,4-Difluoro-N-[3-(3-methyl-4-oxo-2,4-dihydro-pyrazolo[4,3-c]quinolin-5-yl)-propyl]-benzamide]
27 | < 1000 | Cc1[nH]nc2c1c(=O)n(CCCNC(=O)c1ccc(F)cc1)c1ccccc21 [Example 64, 4-Fluoro-N-[3-(3-methyl-4-oxo-2,4-dihydro-pyrazolo[4,3-c]quinolin-5-yl)-propyl]-benzamide]
28 | < 1000 | Cc1[nH]nc2c1c(=O)n(CCCNC(=O)C1CCCCC1)c1ccccc21 [Example 65, Cyclohexanecarboxylic acid [3-(3-methyl-4-oxo-2,4-dihydro-pyrazolo[4,3-c]quinolin-5-yl)-propyl]-amide]
29 | < 1000 | Cc1n[nH]c2c1c(=O)n(CCCNC(=O)Nc1ccccc1)c1ccccc21 [Example 66, 1-[3-(3-Methyl-4-oxo-1,4-dihydro-pyrazolo[4,3-c]quinolin-5-yl)-propyl]-3-phenyl-urea]
30 | < 1000 | Cc1n[nH]c2c1c(=O)n(CCCCNC(=O)Nc1ccccc1)c1ccc(Br)cc21 [Example 67, 1-[4-(8-Bromo-3-methyl-4-oxo-1,4-dihydro-pyrazolo[4,3-c]quinolin-5-yl)-butyl]-3-phenyl-urea]
31 | < 1000 | Cc1[nH]nc2c1c(=O)n(CCCNC(=O)c1ccc(C#N)cc1)c1ccccc21 [Example 68, 4-Cyano-N-[3-(3-methyl4-oxo-2,4-dihydro-pyrazolo[4,3-c]quinolin-5-yl)-propyl]-benzamide]
32 | < 1000 | COc1ccc(C(=O)NCCCn2c(=O)c3c(C)[nH]nc3c3ccccc32)cc1 [Example 69, 4-Methoxy-N-[3-(3-methyl-4-oxo-2,4,5a,9a-tetrahydro-pyrazolo[4,3-c]quinolin-5-yl)-propyl]-benzamide]
33 | < 1000 | Cc1[nH]nc2c1c(=O)n(CCCN)c1cc(Cl)ccc21 [Example 70, 5-(3-Amino-propyl)-7-chloro-3-methyl-2,5-dihydro-pyrazolo[4,3-c]quinolin-4-one]
34 | < 1000 | Cc1[nH]nc2c1c(=O)n(CCCNC(=O)c1cccc(Cl)c1)c1ccccc21 [Example 71, 3-Chloro-N-[3-(3-methyl-4-oxo-2,4-dihydro-pyrazolo[4,3-c]quinolin-5-yl)-propyl]-benzamide]
